From PubChem BioAssay AID463204 (Broad Institute, 2010)
The source made the active and inactive calls.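 The calls were made as follows: active = AC50 no more than ten times the top concentration tested, that is within one log above it; inconclusive = flat curve fit with activity between 30% and 70%, or invalid poor fit; inactive = AC50 beyond ten times the top tested dose.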

Each compound was assayed on S. cerevisiae Mot1-301 ts growth rescue, BacTiter-Glo ATP luminescence (assay: restored Mot1-301 yeast growth at 38.5C – whole organism, S. cerevisiae, Mot1-301 ts mutant, luminescence, dose retest, SUMOylation pathway inhibitor project, confirmation (AID 463204);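 also: growth at restrictive 38.5 degrees C of Mot1-301 OY566 strain; actives raise luminescence by restoring growth of the ts mutant at high temperature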).
With `CC(C)(C)C1c2[nH]c3ccccc3c2CCN1Cc1cccc(OCCO)c1` (stereo not given) the AC50 was > 42 µM (inactive). Work on `O=Nc1c(-c2cccc([N+](=O)[O-])c2)nc2ncccn12` yielded an AC50 of 4.09 µM. `Cc1nc(CSc2nnc3scc(-c4ccccc4)n23)cs1` was tested, and the AC50 was > 42 µM (inactive). For `Cc1cccc(N2CCN(CCCNC(=O)c3ccc(NC(=O)C4=CSCCO4)cc3)CC2C)c1` (stereo not given), the AC50 was > 42 µM (inactive). `COc1cccc(/C=C2\SC(N3CCC(C)CC3)=NC2=O)c1OC` was tested, and the AC50 was > 42 µM (inactive). In the case of `CCCCn1c2c(c(=O)n(C)c1=O)C(c1ccc(OC)cc1)N1CCCCCC1=N2` (stereo not given), the AC50 is reported as > 42 µM (inactive). For `N#CC1=C(N)OC2=C(C(=O)CCC2)C1C1CC=CCC1` (stereo not given), the AC50 was > 42 µM (inactive). For `O=Cc1ccc(Oc2cccc(C(F)(F)F)c2)nc1`, the AC50 was > 42 µM (inactive). In the case of `COc1ccccc1NC(=O)Nc1ccc(Cl)c(S(=O)(=O)Nc2ccccc2OC)c1`, the AC50 is reported as > 42 µM (inactive). For `C=C1C(O)[C@@H]2O[C@]3(CC[C@H](/C=C/C(C)[C@@H]4CC(C)=CC5(O[C@H](C[C@@](C)(O)C(=O)O)CCC5O)O4)O3)CC[C@H]2O[C@@H]1C(O)CC(C)[C@H]1OC2(CCCCO2)CCC1C` (stereo not given in full), the AC50 was 26 µM. With `CSc1ncccc1C(=O)NC1CCCc2c1cnn2-c1ccc(C)c(C)c1` (stereo not given) the AC50 was > 42 µM (inactive). In the case of `Cc1nc2ccccc2c2ncccc12`, the AC50 is reported as > 42 µM (inactive). For `O=C(CCc1ccccc1)NNC(=O)c1ccc(Br)cc1`, the AC50 was > 42 µM (inactive). In the case of `N#CCCN(C(=O)COC(=O)c1ccc(S(=O)(=O)Nc2ccccc2)cc1)c1ccccc1`, the AC50 is reported as > 42 µM (inactive). With `Oc1cccc2ccc(/C=C/c3ccccc3Br)nc12` the AC50 was > 42 µM (inactive). In the case of `CCNC(=S)Nc1ccc(C)c(S(=O)(=O)Nc2ccccc2OC)c1`, the AC50 is reported as > 42 µM (inactive). For `COCc1nnc(NC(=O)CC(C)C)s1`, the AC50 was > 42 µM (inactive). In the case of `CCN1CCN(CC(=O)Nc2cccc(C)c2C)C(=O)C1=O`, the AC50 is reported as > 42 µM (inactive). In the case of `Fc1cccc(NC(=S)N2CCn3cccc3C2c2cccnc2)c1` (stereo not given), the AC50 is reported as > 42 µM (inactive). In the case of `O=C(NC1CCCCC1)c1ccc2snnc2c1`, the AC50 is reported as > 42 µM (inactive). In the case of `O=C(c1cc2c(ccc3ccccc32)oc1=O)N1CCCC1`, the AC50 is reported as > 42 µM (inactive). In the case of `CC(C)CCNC(=O)Cn1c(=O)oc2cc(S(=O)(=O)N3CC(C)CC(C)C3)ccc21` (stereo not given), the AC50 is reported as > 42 µM (inactive). For `Cc1cc(C)n(CCCNC(=O)CN(C)S(=O)(=O)c2ccc(Cl)cc2)n1`, the AC50 was > 42 µM (inactive). `O=S(=O)(Cc1ccccc1)N1CCN(c2ccccc2)CC1` was tested, and the AC50 was > 42 µM (inactive). In the case of `CCOC(=O)c1ccc(NC(=O)NCc2ccncc2)cc1`, the AC50 is reported as > 42 µM (inactive). In the case of `COc1cc(/C=C(\C#N)C(=O)Nc2ccc(C(=O)O)cc2)ccc1OC(=O)c1cccc(F)c1`, the AC50 is reported as > 42 µM (inactive). With `Cc1ccc(C)n1-c1ccc(N(C)C)cc1` the AC50 was > 42 µM (inactive). In the case of `O=C(OCC#CCSc1nnc(-c2ccccc2)o1)c1cc2ccccc2o1`, the AC50 is reported as > 42 µM (inactive). With `COc1ccc(S(=O)(=O)NCC(=O)N(CC(=O)NCC2CCCO2)c2ccccc2C)cc1` (stereo not given) the AC50 was > 42 µM (inactive). In the case of `S=C(Nc1ccc(Cl)cc1)N1CCN(Cc2ccccc2)CC1`, the AC50 is reported as > 42 µM (inactive). With `CCOC(=O)C1(Cc2cccc(OC)c2)CCCN(S(=O)(=O)c2cccnc2)C1` (stereo not given) the AC50 was > 42 µM (inactive). For `CC(C)C(O)(C(=O)NNc1ccccc1)C(C)C`, the AC50 was > 42 µM (inactive). In the case of `Cc1cc(NC(=O)CSc2ncn(-c3ccccc3)n2)no1`, the AC50 is reported as > 42 µM (inactive). In the case of `CCc1nc2ccccc2c(C(=O)OC2CCCCC2=O)c1C` (stereo not given), the AC50 is reported as > 42 µM (inactive). `NS(=O)(=O)c1ccc(CCNC(=O)CN2CCN(c3ccc(F)cc3)CC2)cc1` was tested, and the AC50 was > 42 µM (inactive). With `O=c1[nH]nc(Cc2ccc(-c3ccccc3Cl)o2)c2ccccc12` the AC50 was > 42 µM (inactive). With `CSc1ccccc1-n1nnnc1SCC(=O)Nc1ccccc1C` the AC50 was > 42 µM (inactive). In the case of `CCOC(=O)c1ccc(NC(=S)NCCCN2CCOCC2)cc1`, the AC50 is reported as > 110 µM (inactive). With `CCC(c1nc2ccccc2c(=O)n1-c1nc2ccccc2s1)N1C(=O)c2ccccc2C1=O` (stereo not given) the AC50 was > 42 µM (inactive). `CC(C)(C)c1ccc(C(=O)COC(=O)CN2C(=O)NC3(CCCC3)C2=O)cc1` was tested, and the AC50 was > 42 µM (inactive). `COc1cccc(OC)c1C(=O)Nc1ccc2c(c1)n(C)c(=O)n2C` was tested, and the AC50 was > 42 µM (inactive). For `O=C(Nc1ccc2[nH]c(=O)[nH]c2c1)c1c(F)c(F)c(F)c(F)c1F`, the AC50 was > 42 µM (inactive). With `O=C(O)/C=C\C(=O)NC1CCCCC1` the AC50 was > 42 µM (inactive). With `CN1C(=O)c2ccc(NC(=S)NC(=O)C(C)(C)C)cc2C1=O` the AC50 was > 42 µM (inactive). Compound `CCn1c(SCC(=O)N/N=C/c2ccccc2OCC(=O)O)nnc1-c1ccc(C(C)(C)C)cc1` has an AC50 of 32.7 µM. With `CCCN(CC1CC1)C(=O)COc1ccccc1C(=O)NCc1ccccc1` the AC50 was > 42 µM (inactive). In the case of `Cc1ccc(-c2nc3c(=O)n(-c4ccccc4)c4c(c(=O)n(C)c(=O)n4C)c3o2)cc1`, the AC50 is reported as > 42 µM (inactive). In the case of `CN(C)C(=O)c1cc(C(=O)c2ccc(C(F)(F)F)cc2F)c[nH]1`, the AC50 is reported as > 42 µM (inactive). For `CC(=O)N1c2ccc([N+](=O)[O-])cc2NC(=O)CC1C` (stereo not given), the AC50 was > 42 µM (inactive). For `CCC1(c2ccccc2)NC(=O)N(CC(=O)N(C)CC(=O)Nc2ccc(F)c(F)c2F)C1=O` (stereo not given), the AC50 was > 42 µM (inactive). With `O=C(Nc1ccc(F)cc1F)N1CCCN(c2ccc(C(F)(F)F)cn2)CC1` the AC50 was > 42 µM (inactive). `O=C(NNC(=O)C12CC3CC(CC(C3)C1)C2)c1ccccn1` gave an AC50 of 21 µM. With `COCCN(C(=O)CSc1nnc(-c2ccc(C)cc2)n1N)c1c(N)n(Cc2ccccc2)c(=O)[nH]c1=O` the AC50 was > 42 µM (inactive). `COc1ccc(-c2oc3ccc(-c4cc(OC)c(OC)c(OC)c4)cc3c2C(=O)c2ccc(OC)nc2)cc1` was tested, and the AC50 was > 42 µM (inactive). For `O=C(NC1CCCCCC1)C1CCN(S(=O)(=O)c2cccc3cccnc23)CC1`, the AC50 was > 42 µM (inactive). For `CCCCN(C(=O)C1=COCCO1)c1c(N)n(Cc2ccccc2)c(=O)[nH]c1=O`, the AC50 was > 42 µM (inactive). With `COc1ccc(-c2nc(C#N)c(NC(C)c3ccccc3)o2)cc1OC` (stereo not given) the AC50 was > 42 µM (inactive). For `CC1CCN(CCNC(=O)C2CCCN(S(=O)(=O)c3cccc4nsnc34)C2)CC1` (stereo not given), the AC50 was > 42 µM (inactive). For `Cc1cc(C)cc(NC(=O)CS(=O)(=O)c2ccccc2)c1`, the AC50 was > 42 µM (inactive). In the case of `COC(=O)Nc1ccc(S(=O)(=O)N2CCCC(C(=O)NC3CCS(=O)(=O)C3)C2)cc1` (stereo not given), the AC50 is reported as > 42 µM (inactive). In the case of `O=C(Nc1ccc2c(c1)CCCN2C(=O)c1cccs1)c1cccc(F)c1`, the AC50 is reported as > 42 µM (inactive). With `COc1ccc(Nc2oc(-c3cccs3)nc2C#N)cc1` the AC50 was > 42 µM (inactive). With `O=C(CCS(=O)(=O)c1ccc(Br)s1)NCc1ccccc1` the AC50 was > 42 µM (inactive). In the case of `CCn1c(SCC(=O)Nc2nc(-c3ccccc3)cs2)nnc1-c1ccccc1`, the AC50 is reported as > 42 µM (inactive). In the case of `COc1ccc(N2C(=O)CC(NCc3cccs3)C2=O)cc1` (stereo not given), the AC50 is reported as > 42 µM (inactive). `CCc1noc(C)c1C(=O)Nc1nc(-c2ccc(F)cc2)c(C)s1` was tested, and the AC50 was > 42 µM (inactive). For `CNc1csc(C)c(C)c1=O`, the AC50 was > 42 µM (inactive). `CCC12CN3CCN(CC(C3)/C1=N/NC(=O)c1ccncc1)C2` was tested, and the AC50 was > 42 µM (inactive). For `O=C(Nc1ccc(S(=O)(=O)NC2=NCCCCC2)cc1)c1ccc(C(F)(F)F)cc1`, the AC50 was > 42 µM (inactive). With `CCOc1ccc(Br)cc1CNCCN1CCOCC1` the AC50 was > 42 µM (inactive).
